For 45 compounds, IC50 results are on record in patent US8633212B2, “Inhibitors of beta-secretase” (Vitae Pharmaceuticals, Inc., priority 2009, dated 2014).

The target of one test is truncated human beta-secretase (residues 1-458, His6-tagged at the C-terminus) (Homo sapiens (Human), UniProt P56817). Kind of test: BACE enzyme assay (fluorescence quench assay, Example 434A). The format is biochemical.
Chain of truncated human beta-secretase (residues 1-458, His6-tagged at the C-terminus) (P56817 22-458): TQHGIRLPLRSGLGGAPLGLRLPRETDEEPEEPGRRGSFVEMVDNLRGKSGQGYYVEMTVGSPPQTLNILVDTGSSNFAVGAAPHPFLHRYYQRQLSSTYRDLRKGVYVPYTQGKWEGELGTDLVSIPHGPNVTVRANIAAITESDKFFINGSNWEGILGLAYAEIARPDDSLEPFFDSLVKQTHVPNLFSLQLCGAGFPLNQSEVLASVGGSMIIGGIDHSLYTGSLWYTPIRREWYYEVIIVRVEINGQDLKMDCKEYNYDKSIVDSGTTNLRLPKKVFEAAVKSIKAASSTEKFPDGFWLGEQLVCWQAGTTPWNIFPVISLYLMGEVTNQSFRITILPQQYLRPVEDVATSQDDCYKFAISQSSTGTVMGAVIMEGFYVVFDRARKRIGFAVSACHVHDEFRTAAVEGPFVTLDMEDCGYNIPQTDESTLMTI
Conditions: not given
Usually IC50 stands for the concentration that gives 50% inhibition. Regarding `CN1OC2(N=C1N)c1cc(C#CC3CC3)ccc1CC21CCC(OC(F)F)CC1` (stereo not drawn) [Compound 99], the IC50 was 2.4 nM.

The same test, now with this note: footnote a: protocols described in Example 434A; read-out: IC50.
Turning to `CN1OC2(N=C1N)c1cc(Br)ccc1OC21CCc2ccccc2CC1` (stereo not drawn) [Compound 67], the IC50 stood at 138 nM.

`COC1CCC2(CC1)Cc1ccc(C#Cc3ccccc3)cc1C21N=C(N)N(C)O1` (stereo not drawn) [Compound 112]: the IC50 stood at 80.4 nM.

As for `COC1CCC2(CC1)Cc1ccc(C#CC3CC3)cc1[C@]21N=C(N)N(C)C1=O` (stereo partly drawn) [Compound 478], the IC50 is 2.2 nM.

Turning to `CO[C@H]1CC[C@]2(CC1)Cc1c(F)cccc1C21N=C(N)N(C)C1=O` (stereo partly drawn) [Compound 249], the IC50 came out at 493 nM.

For `COc1cncc(-c2ccc3c(c2)C2(N=C(N)N(C)O2)C2(CCC(OC)CC2)C3)n1` (stereo not drawn) [Compound 111], the IC50 is 196 nM.

With `COC1CCC2(CC1)Cc1ccc(-c3cc(F)ccc3C)cc1C21N=C(N)N(C)O1` (stereo not drawn) [Compound 32], the IC50 came out at 74.1 nM.

For the compound `CN1OC2(N=C1N)c1cc(-c3cccc(C#N)c3)ccc1CC21CCc2cnncc2CC1` (stereo not drawn) [Compound 456], the IC50 was 877 nM.

In the case of `CN1OC2(N=C1N)c1cc(-c3cccc(C#N)c3)ccc1CC21CCOCC1` (stereo not drawn) [Compound 51, 3-(spiro[spiro[2,3-dihydro-indene-2,1′-(4-oxacyclohexane)]-1,5′-(3-amino-2-methyl-2H-[1,2,4]oxadiazole)]-6-yl)benzonitrile], the IC50 was 466 nM.

With `COC1CCC2(CC1)Cc1ccc(-c3ccc4cc[nH]c4c3)cc1C21N=C(N)N(C)O1` (stereo not drawn) [Compound 37], the IC50 was 126 nM.

On to `COC1CCC2(CC1)Cc1ccc(C3=CC(O)CC3)cc1C21N=C(N)N(C)C1=O` (stereo not drawn) [Compound 476], for which the IC50 stood at 33.1 nM.

As for `Cc1onc2c1CC1(CC2)Cc2ccc(C#CC3CC3)cc2C12N=C(N)N(C)C2=O` (stereo not drawn) [Compound 467], the half-maximal inhibitory concentration (IC50) stood at 2.8 nM.

`COC1CCC2(CC1)Cc1ccc(C#CC(F)(F)F)cc1C21N=C(N)N(C)O1` (stereo not drawn) [Compound 115]: the IC50 stood at 3.7 nM.

Turning to `COC1CCC2(CC1)Cc1ccc(-c3cncs3)cc1C21N=C(N)N(C)O1` (stereo not drawn) [Compound 116], the IC50 is 76.7 nM.

For `COC1CCC2(CC1)Cc1ccc(OCC3CC3)cc1C21N=C(N)N(C)O1` (stereo not drawn) [Compound 110], the IC50 was 14.6 nM.

Take `COC1CCC2(CC1)Cc1ccc(C#CC3CC3)cc1C21N=C(N)NC1=O` (stereo not drawn) [Compound 264]: the IC50 worked out at 29.2 nM.

`COC1CCC2(CC1)Cc1ccc(CCC3CC3)cc1C21N=C(N)N(C)O1` (stereo not drawn) [Compound 117]: the IC50 is 17.4 nM.

In the case of `CN1OC2(N=C1N)c1cc(C#CC3CC3)ccc1CC21CCc2ccccc2CC1` (stereo not drawn) [Compound 105], the IC50 is 8.4 nM.

Take `CCOC1CCC2(CC1)Cc1ccc(-c3cccc(C#N)c3)cc1C21N=C(N)N(C)O1` (stereo not drawn) [Compound 82]: the IC50 is 432 nM.

For `COC1CCC2(CC1)Cc1ccc(C#CC3CCCC3)cc1C21N=C(N)N(C)O1` (stereo not drawn) [Compound 114], the IC50 amounted to 9.7 nM.

Take `CCOC1CCC2(CC1)Cc1ccc(C#CC3CC3)cc1C21N=C(N)N(C)O1` (stereo not drawn) [Compound 24]: the IC50 amounted to 21 nM.

Consider `CCN1C(=O)C2(N=C1N)c1cc(C#CC3CC3)ccc1CC21CCC(OC)CC1` (stereo not drawn) [Compound 138], for which the IC50 is 15.6 nM.

On to `COC1CCC2(CC1)Cc1ccc(C#CC3CC3)cc1C21N=C(N)N(C)C1=O` (stereo not drawn) [Compound 76], for which the IC50 came to 2.1 nM.

As to `COC1CCC2(CC1)Cc1ccc(C#CC3CC3)cc1[C@@]21N=C(N)N(C)C1=O` (stereo partly drawn) [Compound 477], the IC50 worked out at 694 nM.

In the case of `CN1OC2(CC3(CCOCC3)c3ccc(-c4cccc(C#N)c4)cc32)N=C1N` (stereo not drawn) [Compound 69, 3-(spiro[spiro[2,3-dihydro-indene-3,1′-(4-oxacyclohexane)]-1,5′-(3-amino-2-methyl-2H-[1,2,4]oxadiazole)]-6-yl)benzonitrile], the IC50 is 4700 nM.

In the case of `Cc1onc2c1CC1(CC2)Cc2ccc(C#CC3CC3)cc2C12N=C(N)N(C)O2` (stereo not drawn) [Compound 468], the IC50 is 16.7 nM.

On to `CN1OC2(N=C1N)c1cc(-c3cccc(C#N)c3)ccc1CCC21CCc2ccccc2CC1` (stereo not drawn) [Compound 63], for which the IC50 turned out to be 5050 nM.

With `COC1CCC2(CC1)Cc1ccc(C#CC(C)(C)C)cc1C21N=C(N)N(C)O1` (stereo not drawn) [Compound 113], the IC50 was 24.6 nM.

Regarding `CN1OC2(N=C1N)c1cc(-c3cccc(C#N)c3)ccc1CC21Cc2cccc3cccc(c23)C1` (stereo not drawn) [Compound 61], the IC50 amounted to 3260 nM.

As to `COC1CCC2(CC1)Cc1ccc(C#CC3CC3)cc1C21N=C(N)N(Cc2ccccc2)C1=O` (stereo not drawn) [Compound 142], the IC50 worked out at 2 nM.

On to `COC1CCC2(CC1)Cc1ccc(-c3cnccn3)cc1C21N=C(N)N(C)O1` (stereo not drawn) [Compound 109], for which the IC50 was 23.6 nM.

Take `CO[C@H]1CC2(Cc3ccc(-c4cccc(C#N)c4)cc3C23N=C(N)N(C)O3)C[C@H]1OC` (stereo partly drawn) [Compound 62]: the IC50 was found to be 4110 nM.

Turning to `CN1OC2(N=C1N)c1cc(-c3ccnnc3)ccc1CC21CCc2ccccc2CC1` (stereo not drawn) [Compound 122], the IC50 was determined as 42.5 nM.

Regarding `COC1CCC2(CC1)Cc1ccc(Br)cc1C21N=C(N)N(C)O1` (stereo not drawn) [Compound 95], the IC50 came out at 137 nM.

Regarding `Cc1onc2c1CC1(CC2)Cc2ccc(-c3cccnc3)cc2C12N=C(N)N(C)O2` (stereo not drawn) [Compound 451], the IC50 was found to be 58.6 nM.

`CN1C(=O)C2(N=C1N)c1cc(C#CC3CC3)ccc1CC21CCC(O)CC1` (stereo not drawn) [Compound 151]: the half-inhibitory concentration (IC50) amounted to 207 nM.

In the case of `CN1C(=O)C2(N=C1N)c1cc(C#CC3CC3)ccc1CC21CCC(O)CC1` (stereo not drawn) [Compound 150], the IC50 amounted to 3 nM.

Turning to `CN1OC2(N=C1N)c1cc(-c3cccc(C#N)c3)ccc1CC21CCC(OC(F)F)CC1` (stereo not drawn) [Compound 100], the IC50 is 4.7 nM.

On to `COC1CCC2(CC1)Cc1ccc(-c3ccnnc3)cc1C21N=C(N)N(C)O1` (stereo not drawn) [Compound 108], for which the IC50 came out at 156 nM.

As to `CN1OC2(N=C1N)c1cc(-c3cccc(C#N)c3)ccc1CC21CCC(NCC(F)(F)F)CC1` (stereo not drawn) [Compound 98], the IC50 amounted to 3320 nM.

As for `CN1OC2(N=C1N)c1cc(-c3cccc(C#N)c3)ccc1CC21CCC(NCC(F)(F)F)CC1` (stereo not drawn) [Compound 97], the IC50 was 3880 nM.

For `CO[C@H]1CC[C@@]2(CC1)Cc1ccc(-c3cccc(C#N)c3)cc1C21CC(=O)N(C)C(N)=N1` (stereo partly drawn) [Compound 65], the IC50 worked out at 50000 nM.

As for `COC1CCC2(CC1)Oc1ccc(-c3cccc(C#N)c3)cc1C21N=C(N)N(C)O1` (stereo not drawn) [Compound 68], the IC50 was found to be 1780 nM.

For the compound `Cc1ccc2c(c1)C1(N=C(N)N(C)O1)C1(CCc3ccccc3CC1)C2` (stereo not drawn) [Compound 104], the IC50 came to 255 nM.

The same test, now with this note: read-out: IC50.
For the compound `CN1OC2(N=C1N)c1cc(-c3cccnn3)ccc1CC21CCc2ccccc2CC1` (stereo not drawn) [Compound 121], the IC50 worked out at 56.2 nM.
